According to the NIST ThermoML archive (doi:10.1021/je500682v):
Numbers after ± are expanded uncertainties.

Assays:
[1] = Crystal; DTA
[2] = Molar enthalpy of transition or fusion; settings: Crystal; DSC

Row | Structure (SMILES) | Normal melting temperature [1] [°C] | Molar enthalpy of transition or fusion [2] [kcal/mol]
1 | O=C(O)CCCC(=O)O [1,5-pentanedioic acid] | 99.10 ± 0.99 | 5.07 ± 0.287
2 | O=C(O)CCCCC(=O)O [1,6-hexanedioic acid] | 152.00 ± 0.99 | 8.4 ± 0.454
3 | O=C(O)CCC(=O)O [butanedioic acid] | 185.50 ± 0.99 | 7.82 ± 0.43
